Measured values from patent US20260200890A1, “ADAR1 INHIBITORS AND METHODS OF USING THE SAME” (AVAMMUNE THERAPEUTICS INC., priority 2022, published 2026).

Biological target: T1, ADAR1 (Homo sapiens, UniProt P55265)
T1 construct: endogenous in cells; host or cells: p110 KO A549 dual cells
T1 sequence (P55265 1-1226): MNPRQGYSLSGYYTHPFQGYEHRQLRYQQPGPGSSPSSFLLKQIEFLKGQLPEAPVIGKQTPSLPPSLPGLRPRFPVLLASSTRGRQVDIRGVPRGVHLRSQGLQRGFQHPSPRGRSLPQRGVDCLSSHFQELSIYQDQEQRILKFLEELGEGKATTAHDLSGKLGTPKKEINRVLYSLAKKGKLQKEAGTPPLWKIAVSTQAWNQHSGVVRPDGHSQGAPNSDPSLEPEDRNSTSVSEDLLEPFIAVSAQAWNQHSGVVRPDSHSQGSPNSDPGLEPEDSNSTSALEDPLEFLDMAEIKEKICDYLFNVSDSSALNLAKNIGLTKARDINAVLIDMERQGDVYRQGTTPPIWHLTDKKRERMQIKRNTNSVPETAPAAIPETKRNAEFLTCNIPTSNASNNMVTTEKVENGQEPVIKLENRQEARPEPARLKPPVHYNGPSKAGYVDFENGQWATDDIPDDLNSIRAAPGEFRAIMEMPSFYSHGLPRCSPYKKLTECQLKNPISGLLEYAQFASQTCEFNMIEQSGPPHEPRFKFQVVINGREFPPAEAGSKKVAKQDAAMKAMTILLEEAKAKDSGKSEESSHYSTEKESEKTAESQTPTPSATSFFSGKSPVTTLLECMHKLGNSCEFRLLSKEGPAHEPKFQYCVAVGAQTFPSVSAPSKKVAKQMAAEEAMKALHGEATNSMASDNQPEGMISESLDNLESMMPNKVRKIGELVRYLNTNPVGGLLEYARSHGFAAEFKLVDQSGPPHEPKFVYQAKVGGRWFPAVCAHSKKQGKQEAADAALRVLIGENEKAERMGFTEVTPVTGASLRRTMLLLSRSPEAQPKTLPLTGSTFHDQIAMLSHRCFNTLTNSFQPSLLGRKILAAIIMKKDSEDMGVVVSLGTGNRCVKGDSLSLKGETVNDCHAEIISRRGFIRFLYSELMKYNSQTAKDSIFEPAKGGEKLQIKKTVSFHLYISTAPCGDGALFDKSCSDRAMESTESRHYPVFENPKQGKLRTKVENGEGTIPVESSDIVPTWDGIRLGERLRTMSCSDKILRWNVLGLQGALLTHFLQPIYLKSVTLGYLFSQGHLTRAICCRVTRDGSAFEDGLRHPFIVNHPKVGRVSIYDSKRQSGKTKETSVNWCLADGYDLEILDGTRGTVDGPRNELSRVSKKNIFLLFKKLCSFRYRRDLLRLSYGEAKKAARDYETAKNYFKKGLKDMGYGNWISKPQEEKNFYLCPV
Assay: ADAR1 Inhibition Assay (IFN fold-induction, Quanti-Luc luminescence, p110 KO A549 dual cells)
Type: cell-based
Settings: IFN fold-induction vs DMSO, 24 and 48 h
Description: An ADAR1 Inhibition Assay was used to determine the biological activity (EC50) of compounds disclosed herein. 100 μL of p110 KO A549 dual cell suspension in supplemented DMEM (20,000 cells per well) was added into a flat bottom 96 well plate. Next day, post media change, 180 μL of supplemented DMEM was added. 20 μL of test compound or positive control was added to the respective wells (Final concentration of DMSO is 1%). The plate was incubated for 24 and 48 hours at 37° C. in a 5% CO2 incubator. After 24 and 48 h, 20 μL of cell suspension was taken in black well plates and 50 μL of Quanti-Luc was added to each well and luminescence was measured using a microplate reader (Spectra Max). IFN fold-induction was plotted considering DMSO as control using the relative luminescence unit (RLU) values. (Fold induction: Sample RLU/Average DMSO RLU).

Structure (SMILES) | EC50 [µM]
NS(=O)(=O)c1cccc(C(=O)OCC(=O)Nc2ccc(-c3ccccc3)s2)c1 [Compound 78] | > 100
CCOC(=O)c1cc(-c2ccccc2)sc1NC(=O)[C@H](CC)OC(=O)c1cccc(S(N)(=O)=O)c1 [Compound 79] | > 100
CCOC(=O)c1cc(-c2ccccc2)sc1NC(=O)[C@H](CC)OC(=O)c1cccc(NS(C)(=O)=O)c1 [Compound 80] | > 100
CCOC(=O)c1cc(-c2ccc(C(C)C)cc2)sc1NC(=O)COC(=O)c1cccc(S(N)(=O)=O)c1 [Compound 81] | > 100
CCOC(=O)c1cc(-c2ccccc2)sc1NC(=O)COC(=O)c1cccc(OS(C)(=O)=O)c1 [Compound 82] | > 100
Cc1cc(C#N)c(NC(=O)COC(=O)c2cccc(S(N)(=O)=O)c2)s1 [Compound 83] | > 100
CS(=O)(=O)Oc1cccc(C(=O)OCC(=O)Nc2sc(-c3ccccc3)cc2C(N)=O)c1 [Compound 84] | > 100
CS(=O)(=O)Nc1cccc(C(=O)OCC(=O)Nc2sc(-c3ccccc3)cc2C(=O)NC2CC2)c1 [Compound 85] | > 100
CCOC(=O)c1c(NC(=O)COC(=O)c2cccc(NS(C)(=O)=O)c2)sc2c1CCC2 [Compound 86] | > 100
CCOC(=O)c1cc(-c2ccccc2)sc1NC(=O)c1cccc(C#N)c1 [Compound 88] | > 100
CCOC(=O)c1c(NC(=O)COC(=O)c2cccc(NS(C)(=O)=O)c2)sc2c1CCCC2 [Compound 89] | > 100
CS(=O)(=O)Nc1cccc(C(=O)OCC(=O)Nc2sccc2C#N)c1 [Compound 90] | > 100
CCOC(=O)c1c(NC(=O)COC(=O)c2cccc(C#N)c2)sc2c1CCCC2 [Compound 91] | > 100
CCOC(=O)c1cc(-c2ccccc2)sc1NC(=O)COC(=O)c1cccc(NS(=O)(=O)c2ccc(F)cc2)c1 [Compound 93] | > 100
CCOC(=O)c1c(-c2ccccc2)csc1NC(=O)COC(=O)c1cccc(NS(C)(=O)=O)c1 [Compound 95] | > 100
CCOC(=O)c1cc(-c2ccccc2)sc1NC(=O)COC(=O)c1cccc(C(=O)O)c1 [Compound 96] | > 100
CCOC(=O)c1ccsc1NC(=O)COC(=O)c1cccc(NS(C)(=O)=O)c1 [Compound 97] | > 100
CCOC(=O)c1cc(-c2ccc(OC(F)(F)F)cc2)sc1NC(=O)COC(=O)c1cccc(NS(C)(=O)=O)c1 [Compound 100] | > 100
CCOC(=O)c1cc(-c2ccccc2)sc1NC(=O)COC(=O)c1ccc(NS(C)(=O)=O)cc1 [Compound 101] | > 100
CCOC(=O)c1cc(-c2ccccc2)sc1NC(=O)COC(=O)c1cccc(NS(=O)(=O)c2ccc(C)cc2)c1 [Compound 102] | > 100
CCOC(=O)c1cc(-c2ccc(S(C)(=O)=O)cc2)sc1NC(=O)COC(=O)c1cccc(NS(C)(=O)=O)c1 [Compound 103] | > 100
CCOC(=O)c1c(NC(=O)COC(=O)c2cccc(NS(C)(=O)=O)c2)sc2c1CCN(C)C2 [Compound 104] | > 100
CCOC(=O)c1cc(-c2ccccc2)sc1NC(=O)CN(c1cccc(CO)c1)S(C)(=O)=O [Compound 105] | > 100
CCOC(=O)c1cc(-c2ccc(C(F)(F)F)cc2)sc1NC(=O)COC(=O)c1cccc(NS(C)(=O)=O)c1 [Compound 106] | > 100
CCOC(=O)c1cc(-c2ccc(F)cc2)sc1NC(=O)COC(=O)c1cccc(NS(C)(=O)=O)c1 [Compound 108] | ≤ 25

The remaining lines, values ahead:

EC50 [µM] | Structure (SMILES)
> 100 | CCOC(=O)c1cc(-c2ccccc2)sc1NC(=O)C1CCCN1C(=O)c1cccc(NS(C)(=O)=O)c1 (stereo not shown) [Compound 109]
> 100 | CCOC(=O)c1cc(-c2ccccc2)sc1NC(=O)COC(=O)c1ccccc1NS(C)(=O)=O [Compound 110]
> 100 | CCOC(=O)c1cc(-c2ccccc2)sc1NC(=O)C1CCCN(C(=O)c2cccc(S(N)(=O)=O)c2)C1 (stereo not shown) [Compound 111]
> 100 | CCOC(=O)c1cc(-c2ccccc2)sc1NC(=O)COC(=O)c1cccc(NS(N)(=O)=O)c1 [Compound 112]
> 100 | CCOC(=O)c1ccc(-c2ccccc2)nc1NC(=O)COC(=O)c1cccc(NS(C)(=O)=O)c1 [Compound 113]
> 100 | CCOC(=O)c1cc(-c2cncnc2)sc1NC(=O)COC(=O)c1cccc(NS(N)(=O)=O)c1 [Compound 115]
> 100 | CCOC(=O)c1cc(-c2cccc(F)c2)sc1NC(=O)COC(=O)c1cccc(NS(C)(=O)=O)c1 [Compound 116]
> 100 | CCNC(=O)c1cc(-c2ccccc2)sc1NC(=O)COC(=O)c1cccc(NS(C)(=O)=O)c1 [Compound 117]
> 100 | CCOC(=O)c1cc(-c2ccc(F)cc2)sc1NC(=O)C1CCCN1C(=O)c1cccc(NS(C)(=O)=O)c1 (stereo not shown) [Compound 119]
> 100 | CCOC(=O)c1ccc(-c2ccccc2)cc1NC(=O)COC(=O)c1cccc(NS(C)(=O)=O)c1 [Compound 120]
> 100 | CCOC(=O)c1cc(-c2ccccc2)sc1NC(=O)CN(C)C(=O)c1cccc(S(N)(=O)=O)c1 [Compound 122]
> 100 | CS(=O)(=O)Nc1cccc(C(=O)OCC(=O)Nc2sc(-c3ccccc3)cc2C(=O)N2CCOCC2)c1 [Compound 123]
> 100 | CCOC(=O)c1cc(-c2ccccc2)sc1NC(=O)COC(=O)c1cccc(NS(=O)(=O)c2ccccc2)c1 [Compound 124]
> 100 | CCOC(=O)c1cc(-c2ccccc2)sc1NC(=O)COC(=O)c1cc(NS(C)(=O)=O)ccc1C [Compound 125]
> 100 | CCOC(=O)c1cc(-c2ccccc2)sc1NC(=O)COC(=O)Cc1cccc(NS(C)(=O)=O)c1 [Compound 126]
> 100 | CCOC(=O)c1cc(-c2ccccc2)sc1NC(=O)COC(=O)c1cc(NS(C)(=O)=O)c(F)cc1F [Compound 128]
> 100 | CCOC(=O)c1cc(-c2ccccc2)sc1NC(=O)COC(=O)c1cc(NS(C)(=O)=O)ccc1F [Compound 129]
> 100 | CCOC(=O)c1cc(-c2ccccc2)sc1NC(=O)COC(=O)c1cccc(NS(=O)(=O)C(C)C)c1 [Compound 131]
> 100 | CCCCS(=O)(=O)Nc1cccc(C(=O)OCC(=O)Nc2sc(-c3ccccc3)cc2C(=O)OCC)c1 [Compound 133]
> 100 | CCOC(=O)c1cc(-c2ccccc2)sc1NC(=O)COC(=O)c1cccc(NS(=O)(=O)CC)c1 [Compound 134]
> 100 | CCOC(=O)c1cc(-c2ccc(N3CCOCC3)cc2)sc1NC(=O)COC(=O)c1cccc(NS(C)(=O)=O)c1 [Compound 135]
> 100 | CCOC(=O)c1cc(-c2ccccc2)sc1NC(=O)COC(=O)c1cccc(NS(=O)(=O)N2CCOCC2)c1 [Compound 136]
≤ 25 | CCOC(=O)c1cc(-c2ccccc2)sc1NC(=O)C1CCN(C(=O)c2cccc(NS(C)(=O)=O)c2)C1 (stereo not shown) [Compound 138, Ethyl 2-(1-(3-(methylsulfonamido)benzoyl)pyrrolidine-3-carboxamido)-5-phenylthiophene-3-carboxylate]
> 100 | CCOC(=O)c1cc(-c2ccccc2)sc1CC(=O)C1CCCN1C(=O)c1cccc(C#N)c1 (stereo not shown) [Compound 139]
> 100 | CCOC(=O)c1cc(-c2ccccc2)sc1NC(=O)COC(=O)c1cccc(NS(=O)(=O)N2CCCCC2)c1 [Compound 140]
> 100 | CCOC(=O)c1nc(-c2ccccc2)[nH]c1NC(=O)COC(=O)c1cccc(NS(C)(=O)=O)c1 [Compound 141]
> 100 | CCOC(=O)c1cc(-c2ccccc2)sc1NC(=O)COC(=O)C1CCCN(S(C)(=O)=O)C1 (stereo not shown) [Compound 142]
